Source: patent US20030224420A1, “Method for isolating and measuring proliferation of long-term label retaining cells and stem cells” (priority 2002, published 2003)
“Also recorded” adds a separate entry of the source.

How the values were obtained:
[1] = tested on: colon epithelial cells (CECs); assay: Flow cytometric (FACS) analysis of BrdU labeled colon epithelial cell nuclei; format: in vivo, Fisher 344 rats; settings: for BrdU+ cells in proliferative fraction of the crypt: FACS
Procedure: For BrdU labeling, rats received BrdU in drinking water at 1 mg/ml. Glucose (1 g/100 ml) was added to the water to mask the taste of BrdU. BrdU was added to the water, then the bottle was shaken. Next, glucose was added and the bottle was vigorously shaken to dissolve BrdU completely. It took approximately 1-2 min for BrdU to dissolve completely. It was important to prepare BrdU drinking water freshly everyday during the feeding period.
Colon was excised fresh at necropsy. Feces were removed with 0.015M NaCl solution with 0.001M dithiothreitol (DTT) and the colon was placed in cold, 1.6% Joklik's modified medium (JMMEM, Gibco Invitrogen, Grand Island, N.Y.) for 120 minutes. CECs from different proliferative fractions of the crypt were separated sequentially using the nonenzymatic, mechanical dissociation method described elsewhere. CEC from different crypt fractions (basal proliferative fraction and top mature fraction) were collected by incubating the colon sac filled with PBS buffers containing chelating agents. The tissue was shaken in a 37° C. water bath for 20 minutes, then 15 minutes and 30 minutes for collecting CECs from top, middle and the basal fractions, respectively. The middle fraction (transitional fraction) was discarded. The collected CECs were then separated from intraepithelial lymphocytes and other contaminants by applying to a discontinuous Percoll (Amersham Biosciences, Uppsala, Sweden) gradient centrifugation, with 45% Percoll overlaid on 75% Percoll. CEC from the proliferative fraction (the base of the crypts) were collected and used for FACS and GC/MS analysis since LRCs are known to be located at this region. The CECs from the mature (top) fractions from the rats that were given ^2H2O for 2-3 weeks were used as fully turned over CECs to represent the maximal ^2H labeling in DNA. A part of the distal and proximal colon was used for immunohistochemistry.
The staining protocol was as described elsewhere, and was modified for CECs. The CECs were separated from colon (as described above) and filtered through a Falcon tube 2235. The cells were then fixed with ice cold 95% ethanol while vortexing, centrifugated at 800 g for 3 minutes and washed in cold PBS (without Ca^++ and Mg^++) once. […] Two million cells were washed of ethanol in 150 ul of PBS, incubated in 1% NP 40 (Sigma) solution in the refrigerator for 30 minutes, centrifugated at 10,000 g, and the pellet was collected and washed in PBS. Two million CEC nuclei were added to each well in 96 well plates (round bottom), then 150 ul of 1% paraformaldehyde with 0.01% Tween 20 in PBS was added for additional fixation and permeabilization. The cells were kept at room temperature for 30 minutes then at 4° C. for 15 minutes, prior to centrifugation at 800 g for 3 minutes and washing in cold PBS once. Next, 150 μl of DNase I (50 kunits/ml) was added at room temperature for 15 minutes to allow denaturation of nuclear DNA. […] For negative controls, an equal concentration of mouse IgG1 FITC isotype control antibodies (Becton Dickinson, Cat 349041) were used to correct for background fluorescence. […]
At the end of each BrdU labeling period (0 week delabed), we analyzed the percent of BrdU positive cells from the proliferative fraction of the crypt (where LRCs have previously been located). This maximal BrdU labeled sample was analyzed to confirm the efficacy of BrdU administration. […]

[2] = Body weight and toxicity during BrdU administration (p.o. drinking water vs i.p.); format: in vivo
CEC = CEC proliferation rates of BrdU treated vs control rats (preliminary study); format: in vivo; settings: data not shown
Source text: There have been reports on the inhibitory effects of BrdU on cell proliferation and differentiation in vitro and in vivo at various concentrations and in various cell types. Since BrdU toxicity is strain and cell type specific, we cannot completely assess possible toxic effects from BrdU on the proliferation of LRCs.

[3] = Body water ^2H2O enrichment by GC/MS during ^2H2O administration; format: in vivo, Fisher 344 rats; settings: for Body Water ^2H2O Enrichment: 8% ^2H2O drinking water
Procedure: Rats were primed with 99.9% ^2H2O i.p. at the start of the ^2H2O labeling period. The volume injected was 4% of the estimated body water volume. Then they were maintained on 8% ^2H2O enriched drinking water ad libitum for up to 8 weeks (19).
Body water enrichments were measured by a gas chromatographic/mass spectrometer (GC/MS) technique that we have described previously.
Body water ^2H2O enrichments were measured from plasma obtained from rats sacrificed at each time point. Achievement of plateau ^2H enrichments in body water during long-term ^2H2O administration is desirable because it signifies a stable DNA synthesis precursor enrichment for labeling of DNA. Body water enrichment from rats that were on ^2H2O for 2-8 weeks reached expected values and remained at those plateau levels (3.9-4.3%) throughout the study (FIG. 3).

O=c1[nH]c(=O)n([C@H]2C[C@H](O)[C@@H](CO)O2)cc1Br [BrdU, bromodeoxyuridine]
BrdU+ cells in proliferative fraction, mean±SD over labeling periods ([1]; 0 week delabeled, mean of 2, 4 and 8 weeks BrdU p.o.): 77±12% | BrdU positive cells after 4 and 8 weeks of BrdU administration ([1]; 4 and 8 weeks BrdU p.o.): 65-77% | BrdU+ cells in proliferative fraction of the crypt ([1]; after 4 weeks BrdU p.o., 0 week delabeled): 65% | BrdU+ cells in proliferative fraction of the crypt ([1]; after 8 weeks BrdU p.o., 0 week delabeled): 77% | BrdU incorporation / fluorescence of CEC, i.p. vs p.o. ([1]; repeated i.p. injection once a day for 8 days compared with p.o. drinking water): more BrdU incorporation and thus higher fluorescence | Toxicity or weight loss ([2]; BrdU 1 mg/ml in drinking water, long-term): did not cause any detectable toxicity or weight loss | Toxicity (body weight) ([2]; BrdU i.p., repeated injections once a day for 8 days): caused toxicities; also recorded: caused weight loss; also recorded: toxicities were observed | CEC proliferation rates vs control rats (CEC): same CEC proliferation rates as the control rats

[2H]O[2H] [^2H2O, deuterated water]
Body Water ^2H2O Enrichment ([3]; Week 1 of ^2H2O administration): 4.29 | Body Water ^2H2O Enrichment ([3]; Week 3 of ^2H2O administration): 3.93 | Body Water ^2H2O Enrichment ([3]; Week 4 of ^2H2O administration): 4.30 | Delabeling time for ^2H2O to be almost completely washed out of the body water pool ([3]; after stopping ^2H2O intake, found previously in applicant's lab): less than 1 week | Body water enrichment, plateau levels ([3]; rats on ^2H2O for 2-8 weeks, measured from plasma): 3.9-4.3% | Body water enrichment maintained throughout the study ([3]; throughout the study): 4.2±0.2 % of total body water
